These results are taken from ChEMBL document CHEMBL1142723, “Discovery of a potent, selective, and efficacious class of reversible alpha-ketoheterocycle inhibitors of fatty acid amide hydrolase effective as analgesics” (J Med Chem, 2005).

A value given as a limit tells only on which side of the number the result lay.

The target in this assay is T1, Fatty-acid amide hydrolase 1 (Rattus norvegicus, UniProt P97612).
T1 sequence (P97612 whole entry): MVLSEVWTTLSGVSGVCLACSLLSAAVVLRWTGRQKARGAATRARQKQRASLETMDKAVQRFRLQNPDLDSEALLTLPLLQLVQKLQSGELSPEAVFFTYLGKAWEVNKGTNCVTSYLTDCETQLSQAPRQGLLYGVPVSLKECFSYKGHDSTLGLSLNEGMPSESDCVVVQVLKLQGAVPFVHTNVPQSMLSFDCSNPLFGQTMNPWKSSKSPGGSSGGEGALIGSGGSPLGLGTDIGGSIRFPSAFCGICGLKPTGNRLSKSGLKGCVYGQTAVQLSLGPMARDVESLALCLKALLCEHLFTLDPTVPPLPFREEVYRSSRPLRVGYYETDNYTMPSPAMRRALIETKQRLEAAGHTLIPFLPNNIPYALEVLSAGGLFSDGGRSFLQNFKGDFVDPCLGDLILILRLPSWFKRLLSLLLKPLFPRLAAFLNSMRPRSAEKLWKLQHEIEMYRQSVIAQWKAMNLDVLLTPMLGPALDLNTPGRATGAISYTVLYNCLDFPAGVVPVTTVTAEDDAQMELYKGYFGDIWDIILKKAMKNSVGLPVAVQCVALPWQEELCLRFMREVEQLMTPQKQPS
Briefly: Inhibitory constant determined against recombinant Fatty-acid amide hydrolase from rat expressed in Escherichia coli.
What is called Ki is the equilibrium dissociation constant of an inhibitor or competing ligand from its target. As for `O=C(Cc1ccccc1)c1ncc(-c2ccccn2)o1`, the Ki amounted to 17 µM.

As for `CCCCCCCC(=O)c1ncc(-c2ccccn2)o1`, the Ki was determined as 0.049 µM.

For the compound `CCCCCCCC/C=C\CCCCCCCC(=O)c1ncc(-c2cnccn2)o1`, the Ki was found to be 0.018 µM. As to `CC(=O)c1ncc(-c2ccccn2)o1`, the Ki was > 100 µM. The same measure for `CCCCCCCC/C=C\CCCCCCCC(O)c1ncc(-c2ccccn2)o1` (centres undefined): 10.6 µM; for `CCCCCC(=O)c1ncc(-c2ccccn2)o1`: 0.94 µM; for `O=C(CCCCCCCc1ccccc1)c1ncc(-c2ccccn2)o1`: 0.0075 µM.

As to `CCCCCCCC/C=C\CCCCCCCC(=O)c1nc(-c2ncccn2)co1`, the Ki turned out to be 0.016 µM.

On to `CCCCCCCC/C=C\CCCCCCCC(=O)c1ncc(-c2ccsc2)o1`, for which the Ki was found to be 13.2 µM. Regarding `O=C(CCCCCCc1ccccc1)c1ncc(-c2cncnc2)o1`, the Ki is 0.022 µM. `CCCCCCCC/C=C\CCCCCCCC(=O)c1ncc(-c2cccs2)o1`: the Ki was determined as 0.89 µM. The same measure for `O=C(CCCCCCCCCc1ccccc1)c1ncc(-c2ccccn2)o1`: 0.01 µM; for `OC(CCCCCCc1ccccc1)c1ncc(-c2ncccn2)o1` (centres undefined): 5.9 µM; for `CCCCCCCC/C=C\CCCCCCCC(=O)c1nc(-c2ccccc2)co1`: 0.49 µM.

As to `CCCCCCCCCC(=O)c1ncc(-c2ccccn2)o1`, the Ki was determined as 0.009 µM. For `CCCCCCCC/C=C\CCCCCCCC(=O)c1nc(-c2ccncn2)co1` the value was 0.016 µM; for `OC(CCCCCCc1ccccc1)c1ncc(-c2ccccn2)o1` (centres undefined), 3.3 µM.

For the compound `O=C(CCc1ccccc1)c1ncc(-c2ccccn2)o1`, the Ki was 0.2 µM.

Consider `C[Si](C)(C)C#CCCCCC(=O)c1ncc(-c2ccccn2)o1`, for which the Ki stood at 0.2 µM. For `CCCCCCCCCCCCCCCC(=O)c1ncc(-c2ccccn2)o1` the value was 0.021 µM; for `CCCCCCCCC(=O)c1ncc(-c2ccccn2)o1`, 0.015 µM; for `C#CCCCCCCCC(=O)c1ncc(-c2ccccn2)o1`, 0.023 µM. On to `CCCCCCCC/C=C\CCCCCCCC(=O)c1ncc(-c2cccnn2)o1`, for which the Ki turned out to be 0.014 µM. For `CCCCCCCC/C=C\CCCCCCCC(=O)c1nc(-c2ccccc2)c(-c2ccccc2)o1` the value was > 100 µM; for `CCCCCCCC/C=C\CCCCCCCC(=O)c1nc(-c2cccnc2)co1`, 0.041 µM. With `O=C(CCCCCCc1ccccc1)c1ncc(-c2cccnn2)o1`, the Ki is 0.0056 µM.

Turning to `O=C(CCCCCCc1ccccc1)c1ncc(-c2ncccn2)o1`, the Ki was 0.0046 µM. For `CCCCCCCC/C=C\CCCCCCCC(=O)c1ncc(-c2ccccc2)o1` the value was 0.32 µM.

Regarding `O=C(CCCCCc1ccccc1)c1ncc(-c2ccccn2)o1`, the Ki is 0.011 µM. The same measure for `CCCCCCCC/C=C\CCCCCCCC(=O)c1ncc(-c2ccncc2)o1`: 0.056 µM; for `O=C(CCCCCCc1ccccc1)c1ncc(-c2ncco2)o1`: 0.0046 µM. For `CCCCCCCC/C=C\CCCCCCCC(=O)c1ncc(-c2nccn2C)o1` the value was 0.047 µM; for `CCCCCCC(=O)c1ncc(-c2ccccn2)o1`, 0.17 µM; for `O=C(CCCCCCCCCCc1ccccc1)c1ncc(-c2ccccn2)o1`, 0.022 µM. For `CCCCCCCC/C=C\CCCCCCCC(=O)c1nc(C)c(C)o1` the value was 3.8 µM. As for `O=C(CCCc1ccccc1)c1ncc(-c2ccccn2)o1`, the Ki turned out to be 0.12 µM. For `CCCCCCCC/C=C\CCCCCCCC(=O)c1ncc(-c2ccoc2)o1` the value was 0.61 µM. `O=C(CCCCc1ccccc1)c1ncc(-c2ccccn2)o1`: the Ki was 0.033 µM.

Consider `CCCCCCCCCCC(=O)c1ncc(-c2ccccn2)o1`, for which the inhibitory constant (Ki) was 0.0033 µM. The same measure for `OC(CCCCCCc1ccccc1)c1ncc(-c2cccnn2)o1` (centres undefined): 4.3 µM; for `O=C(CCCCC#Cc1ccccc1)c1ncc(-c2ccccn2)o1`: 0.02 µM; for `CCCCC(=O)c1ncc(-c2ccccn2)o1`: 3 µM. The same measure for `O=C(CCCCCCCCc1ccccc1)c1ncc(-c2ccccn2)o1`: 0.0078 µM; for `CCCCCCCCCCCCCC(=O)c1ncc(-c2ccccn2)o1`: 0.013 µM.
